Test results: ChEMBL document CHEMBL1833838, “Pancreatic anticancer activity of a novel geranylgeranylated coumarin derivative” (2011)
Calls of active or inactive are those of the source. No cut-off for these calls is given here.

Assays:
[1] = test system: PANC-1; experiment: Cytotoxicity against human PANC1 cells in nutrient-deprived condition at 0.01 ug/mL after 24 hrs by WST-8 assay; assay type: functional, cell-based
[2] = test system: PANC-1; experiment: Cytotoxicity against human PANC1 cells in nutrient-deprived condition assessed as cell death at 100 uM after 24 hrs by WST-8 assay; assay type: functional
[3] = test system: PANC-1; experiment: Induction of apoptosis in human PANC1 cells in nutrient-deprived condition assessed as morphological changes at 3.125 to 12.5 uM up to 24 hrs by microscopy; assay type: functional, cell-based
[4] = test system: PANC-1; experiment: Cytotoxicity against human PANC1 cells in nutrient-deprived condition assessed as cell death at 6.25 uM after 24 hrs by WST-8 assay; assay type: functional
[5] = test system: PANC-1; experiment: Cytotoxicity against human PANC1 cells in nutrient-deprived condition assessed as cell death at 200 uM after 24 hrs by WST-8 assay; assay type: functional

| Compound | Activity [2] | other results |
| --- | --- | --- |
| CC(C)(OC(=O)/C=C/c1ccc(O)cc1)[C@@H]1Cc2c(ccc3ccc(=O)oc23)O1 |  | Activity [1]: Active |
| CC(C)=CCOc1ccc2ccc(=O)oc2c1 [7-PRENYLOXYCOUMARIN] | 100% |  |
| CC(C)=CCC/C(C)=C/COc1ccc2ccc(=O)oc2c1 | Active |  |
| CC(C)=CCC/C(C)=C/CC/C(C)=C/CC/C(C)=C/COc1ccc2ccc(=O)oc2c1 | Active | Activity [3]: Active; Activity [4]: 100% |
| O=c1ccc2ccc(OC3CCCC3)cc2o1 |  | Activity [5]: 100% |
| CC(C)=CCC/C(C)=C/CC/C(C)=C/COc1cc2ccccc2oc1=O | Active |  |
